These results are taken from patent US12637440B2, “Amide derivative useful as diacylglycerol acyltransferase 2 inhibitor, and use thereof” (LG CHEM, LTD., priority 2019, dated 2026).

Each structure is given as a SMILES string.

For this experiment, the target named is T1, Recombinant human DGAT2 protein (Homo sapiens, UniProt Q96PD7).
T1 construct: FLAG (DYKDDDDK); (N); made in house; host or cells: Sf-21 insect cells (BacPAK baculovirus system); used as a membrane preparation
T1 sequence (Q96PD7 1-388): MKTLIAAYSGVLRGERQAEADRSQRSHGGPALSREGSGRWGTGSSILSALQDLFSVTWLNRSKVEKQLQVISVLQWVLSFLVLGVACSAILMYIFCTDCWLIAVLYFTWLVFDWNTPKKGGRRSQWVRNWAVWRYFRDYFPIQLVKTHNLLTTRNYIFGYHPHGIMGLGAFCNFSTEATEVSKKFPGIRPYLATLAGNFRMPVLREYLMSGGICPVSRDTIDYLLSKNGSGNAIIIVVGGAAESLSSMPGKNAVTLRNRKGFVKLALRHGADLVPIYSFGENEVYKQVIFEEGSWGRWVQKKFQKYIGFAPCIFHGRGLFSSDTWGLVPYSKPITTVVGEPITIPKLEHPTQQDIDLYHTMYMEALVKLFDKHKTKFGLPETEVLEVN
The experiment can be described thus: Measurement of inhibitory effect against DGAT2 enzyme activity (SPA, Phospholipid FlashPlate, [14C]-TG production). Format: biochemical. As to conditions: concentration inhibiting [14C]-labeled triacyl glycerol (TG) production by 50%; 2 μg DGAT2-membrane protein from Sf-21 cells, 37° C. A digest of the protocol:
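Membranes from Sf-21 cells expressing human DGAT2 (2 μg) preincubated 20 min at 37 °C with compound (3 nM–10 μM, 1% DMSO) in HEPES/MgCl2/BSA with 50 μM 1,2-dioleoyl glycerol, then 1 μM [14C]oleoyl-CoA for 15 min. [14C]-TG measured by SPA FlashPlate; inhibition as % of untreated control.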

For the compound `CCOc1ccccc1O[C@@H]1CCCN(c2cncc(NC(=O)c3cccc(-c4ccc(CC(C)(C)C(=O)O)cc4)c3)n2)C1` [Example 130, (R)-3-(3′-((6-(3-(2-ethoxyphenoxy)piperidin-1-yl)pyrazin-2-yl)carbamoyl)-[1,1′-biphenyl]-4-yl)-2,2-dimethylpropanoic acid], the IC50 is 380 nM.
